“And” between values parts separate entries of the source, which are not always exact repeats. Identical values can stand only once. Toxic doses and inconclusive results are not listed. No stated cut-off is given here; in the data, active means T/C of 150% or more; inactive means T/C below 125%.
Tested on: L1210 leukemia ip in BDF1 mice, survival T/C
Experiment: NCI In Vivo Anticancer Drug Screen. Data for tumor model L1210 Leukemia (intraperitoneal) in B6D2F1 (BDF1) mice
Settings: endpoint: mean survival time, higher = longer survival
Outline: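 Survival endpoint. Drug-treated group vs vehicle group, expressed as T divided by C. Tumor passaged by transplantation.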

[1] = dose: 100.0 mg/kg/injection, schedule: Q04DX003 (ip), vehicle: Klucel (hydroxypropylcellulose) (HPC)
[2] = dose: 200.0 mg/kg/injection, schedule: Q04DX003 (ip), vehicle: Klucel (hydroxypropylcellulose) (HPC)
[3] = dose: 100.0 mg/kg/injection, schedule: Q04DX003 (ip), vehicle: saline with Tween-80
[4] = dose: 200.0 mg/kg/injection, schedule: Q04DX003 (ip), vehicle: saline with Tween-80
[5] = dose: 100.0 mg/kg/injection, schedule: Q01DX009 (ip), vehicle: carboxymethylcellulose (CMC)
[6] = dose: 100.0 mg/kg/injection, schedule: Q04DX002 (ip), vehicle: carboxymethylcellulose (CMC)
[7] = dose: 100.0 mg/kg/injection, schedule: Q04DX003 (ip), vehicle: carboxymethylcellulose (CMC)
[8] = dose: 200.0 mg/kg/injection, schedule: Q01DX009 (ip), vehicle: carboxymethylcellulose (CMC)
[9] = dose: 200.0 mg/kg/injection, schedule: Q04DX002 (ip), vehicle: carboxymethylcellulose (CMC)
[10] = dose: 200.0 mg/kg/injection, schedule: Q04DX003 (ip), vehicle: carboxymethylcellulose (CMC)

Measured: T/C

CCCCSP(=O)(c1ccccc1)N1CCCCC1 (configuration not stated)
inactive: dose: 25.0 mg/kg/injection, schedule: Q04DX002 (ip), vehicle: saline with Tween-80 100 % of control | dose: 50.0 mg/kg/injection, schedule: Q04DX002 (ip), vehicle: saline with Tween-80 92 % of control | dose: 100.0 mg/kg/injection, schedule: Q04DX002 (ip), vehicle: saline with Tween-80 92 % of control and 97 % of control

CC1Oc2ccccc2OC1NC1=NCCO1 (configuration not stated)
inactive: dose: 100.0 mg/kg/injection, schedule: Q01DX001 (ip), vehicle: Klucel (hydroxypropylcellulose) (HPC) 97 % of control | [1] 100 % of control | dose: 200.0 mg/kg/injection, schedule: Q01DX001 (ip), vehicle: Klucel (hydroxypropylcellulose) (HPC) 103 % of control | [2] 100 % of control | dose: 400.0 mg/kg/injection, schedule: Q01DX001 (ip), vehicle: Klucel (hydroxypropylcellulose) (HPC) 102 % of control | dose: 400.0 mg/kg/injection, schedule: Q04DX003 (ip), vehicle: Klucel (hydroxypropylcellulose) (HPC) 108 % of control

CCC(=O)Nc1cccc(OC(=O)NC2CCCCC2)c1
inactive: [3] 102 % of control | [4] 98 % of control | dose: 400.0 mg/kg/injection, schedule: Q04DX003 (ip), vehicle: saline with Tween-80 91 % of control

CC(=O)OC1CCC2(C)C(CCC3C2CCC2(C)C(c4ccc(=O)oc4)C(OC(C)=O)CC32O)C1 (configuration not stated)
inactive: dose: 1.0 mg/kg/injection, schedule: Q01DX001 (sc), vehicle: steriod suspending solution 96 % of control | dose: 2.0 mg/kg/injection, schedule: Q01DX001 (sc), vehicle: steriod suspending solution 98 % of control | dose: 4.0 mg/kg/injection, schedule: Q01DX001 (sc), vehicle: steriod suspending solution 93 % of control | dose: 8.0 mg/kg/injection, schedule: Q01DX001 (sc), vehicle: steriod suspending solution 109 % of control | dose: 12.0 mg/kg/injection, schedule: Q01DX001 (sc), vehicle: steriod suspending solution 98 % of control | dose: 16.0 mg/kg/injection, schedule: Q01DX001 (sc), vehicle: steriod suspending solution 101 % of control | dose: 32.0 mg/kg/injection, schedule: Q01DX001 (sc), vehicle: steriod suspending solution 108 % of control | dose: 64.0 mg/kg/injection, schedule: Q01DX001 (sc), vehicle: steriod suspending solution 103 % of control | dose: 128.0 mg/kg/injection, schedule: Q01DX001 (sc), vehicle: steriod suspending solution 111 % of control

CN(C)C/C=C/COC(=O)C(C)(C)C
inactive: dose: 75.0 mg/kg/injection, schedule: Q01DX001 (ip), vehicle: saline 93 % of control | dose: 150.0 mg/kg/injection, schedule: Q01DX001 (ip), vehicle: saline 97 % of control | dose: 300.0 mg/kg/injection, schedule: Q01DX001 (ip), vehicle: saline 87 % of control

C1CN(C[C@H]2COC[C@@H](CN3CCOCC3)O2)CCO1
inactive: dose: 75.0 mg/kg/injection, schedule: Q04DX003 (ip), vehicle: saline 98 % of control | dose: 150.0 mg/kg/injection, schedule: Q04DX003 (ip), vehicle: saline 106 % of control | dose: 300.0 mg/kg/injection, schedule: Q04DX003 (ip), vehicle: saline 95 % of control

CCOc1ccc2nc(/C=C/c3ccc(N(C)C)cc3)ccc2c1
inactive: dose: 50.0 mg/kg/injection, schedule: Q01DX009 (ip), vehicle: Klucel (hydroxypropylcellulose) (HPC) 94 % of control | dose: 100.0 mg/kg/injection, schedule: Q01DX009 (ip), vehicle: Klucel (hydroxypropylcellulose) (HPC) 94 % of control | dose: 200.0 mg/kg/injection, schedule: Q01DX009 (ip), vehicle: Klucel (hydroxypropylcellulose) (HPC) 92 % of control | dose: 400.0 mg/kg/injection, schedule: Q01DX009 (ip), vehicle: Klucel (hydroxypropylcellulose) (HPC) 100 % of control

O=C(Nc1ccc(Cl)cc1)Oc1ccc(Cl)cc1Cl
inactive: dose: 25.0 mg/kg/injection, schedule: Q01DX009 (ip), vehicle: DMSO 92 % of control | dose: 25.0 mg/kg/injection, schedule: Q04DX002 (ip), vehicle: DMSO 94 % of control | dose: 50.0 mg/kg/injection, schedule: Q01DX009 (ip), vehicle: DMSO 86 % of control | dose: 50.0 mg/kg/injection, schedule: Q04DX002 (ip), vehicle: DMSO 87 % of control | dose: 200.0 mg/kg/injection, schedule: Q04DX002 (ip), vehicle: DMSO 96 % of control

CCOC(=O)C1(C(=O)OCC)C2CC(C)=C(C)CC21 (configuration not stated)
inactive: dose: 50.0 mg/kg/injection, schedule: Q01DX009 (ip), vehicle: acetone 92 % of control | dose: 100.0 mg/kg/injection, schedule: Q01DX009 (ip), vehicle: acetone 90 % of control

COC(=O)c1ccccc1N(C)C(=O)Nc1ccc(F)cc1
inactive: dose: 100.0 mg/kg/injection, schedule: Q01DX001 (ip), vehicle: carboxymethylcellulose (CMC) 94 % of control | [5] 92 % of control and 97 % of control | [6] 92 % of control and 100 % of control | [7] 104 % of control | dose: 200.0 mg/kg/injection, schedule: Q01DX001 (ip), vehicle: carboxymethylcellulose (CMC) 101 % of control | [8] 87 % of control and 90 % of control | [9] 98 % of control and 89 % of control | [10] 102 % of control | dose: 400.0 mg/kg/injection, schedule: Q01DX001 (ip), vehicle: carboxymethylcellulose (CMC) 89 % of control | dose: 400.0 mg/kg/injection, schedule: Q01DX009 (ip), vehicle: carboxymethylcellulose (CMC) 98 % of control and 105 % of control | dose: 400.0 mg/kg/injection, schedule: Q04DX002 (ip), vehicle: carboxymethylcellulose (CMC) 98 % of control | dose: 400.0 mg/kg/injection, schedule: Q04DX003 (ip), vehicle: carboxymethylcellulose (CMC) 90 % of control

Cc1ccc(NC(=O)c2ccc(C)c(NC(=O)C(F)(F)F)c2)c(C)c1
inactive: dose: 50.0 mg/kg/injection, schedule: Q04DX003 (ip), vehicle: Klucel (hydroxypropylcellulose) (HPC) 97 % of control | [1] 100 % of control | [2] 95 % of control

N#Cc1ccsc1C#N
inactive: dose: 100.0 mg/kg/injection, schedule: Q04DX003 (ip), vehicle: acetone 109 % of control

Cc1nc(Br)c(Br)n1C
inactive: dose: 25.0 mg/kg/injection, schedule: Q04DX002 (ip), vehicle: Klucel (hydroxypropylcellulose) (HPC) 110 % of control | dose: 50.0 mg/kg/injection, schedule: Q01DX009 (ip), vehicle: carboxymethylcellulose (CMC) 103 % of control and 104 % of control | dose: 50.0 mg/kg/injection, schedule: Q04DX002 (ip), vehicle: Klucel (hydroxypropylcellulose) (HPC) 92 % of control | [5] 96 % of control and 118 % of control | dose: 100.0 mg/kg/injection, schedule: Q04DX002 (ip), vehicle: Klucel (hydroxypropylcellulose) (HPC) 100 % of control and 91 % of control | [6] 105 % of control | [7] 91 % of control | [8] 96 % of control and 110 % of control | [9] 97 % of control and 105 % of control | [10] 104 % of control

O=[N+]([O-])c1ccc(Cl)c2c([N+](=O)[O-])cccc12
inactive: [3] 94 % of control | [4] 102 % of control

CCCCCCCCCC(C)CCCCCCC (configuration not stated)
inactive: dose: 100.0 mg/kg/injection, schedule: Q01DX001 (ip), vehicle: saline with Tween-80 103 % of control | dose: 200.0 mg/kg/injection, schedule: Q01DX001 (ip), vehicle: saline with Tween-80 97 % of control | dose: 400.0 mg/kg/injection, schedule: Q01DX001 (ip), vehicle: saline with Tween-80 100 % of control

Cc1ccc(S(=O)(=O)N2CCN(C)CC2)cc1
inactive: dose: 100.0 mg/kg/injection, schedule: Q01DX001 (ip), vehicle: saline 103 % of control | dose: 200.0 mg/kg/injection, schedule: Q01DX001 (ip), vehicle: saline 97 % of control | dose: 400.0 mg/kg/injection, schedule: Q01DX001 (ip), vehicle: saline 97 % of control

From PubChem BioAssay AID248 (DTP/NCI, 2004)
